In PMC10178848, “Modulating fast skeletal muscle contraction protects skeletal muscle in animal models of Duchenne muscular dystrophy” (The Journal of Clinical Investigation, 2023):

Tested on: mdx mouse EDL muscle
Test: Phosphoprotein array analysis (Cell Signaling Phospho Antibody Array)
Method: mdx mouse EDL muscle was prepared for ex vivo analysis as described (n = 5). Muscles were incubated for 1 hour with DMSO or EDG-5506 (5 μM) and then flash frozen in liquid nitrogen. Tissue preparation and analysis were performed as recommended by the manufacturer (Cell Signaling Phospho Antibody Array, Full Moon Biosystems).

O=c1ccc(-c2cnc(OCC(F)(F)F)nc2)nn1Cc1cncc(F)c1 [EDG-5506]
Fold Change T/C: PPAR-gamma (Ab-112) (5 μM, 1 hour): 1.49
Fold Change T/C: PPAR-gamma (Phospho-Ser112) (5 μM, 1 hour): 1.26
Fold Change T/C: PTEN (Ab-380) (5 μM, 1 hour): 1.13
Fold Change T/C: Raf1 (Ab-43) (5 μM, 1 hour): 0.90
Fold Change T/C: Rb (Ab-807) (5 μM, 1 hour): 2.11
Fold Change T/C: Rb (Phospho-Ser807) (5 μM, 1 hour): 0.91
Fold Change T/C: RelB (Phospho-Ser552) (5 μM, 1 hour): 0.76
Fold Change T/C: SAPK/JNK (Phospho-Tyr185) (5 μM, 1 hour): 0.84
Fold Change T/C: SHP-2 (Phospho-Tyr542) (5 μM, 1 hour): 0.91
Fold Change T/C: SRF (Ab-99) (5 μM, 1 hour): 1.97
Fold Change T/C: STAT3 (Ab-705) (5 μM, 1 hour): 1.05
Fold Change T/C: STAT3 (Phospho-Tyr705) (5 μM, 1 hour): 0.92
Fold Change T/C: STAT4 (Phospho-Tyr693) (5 μM, 1 hour): 1.04
Fold Change T/C: STAT5A (Ab-780) (5 μM, 1 hour): 0.86
Fold Change T/C: STAT6 (Ab-645) (5 μM, 1 hour): 1.12
Fold Change T/C: STAT6 (Phospho-Thr645) (5 μM, 1 hour): 0.89
Fold Change T/C: SYK (Ab-525) (5 μM, 1 hour): 0.99
Fold Change T/C: SYK (Phospho-Tyr348) (5 μM, 1 hour): 0.91
Fold Change T/C: Shc (Ab-349) (5 μM, 1 hour): 0.62
Fold Change T/C: Smad1 (Ab-465) (5 μM, 1 hour): 0.82
Fold Change T/C: Smad1 (Phospho-Ser187) (5 μM, 1 hour): 1.60
Fold Change T/C: Smad2 (Ab-255) (5 μM, 1 hour): 2.57
Fold Change T/C: Smad2 (Phospho-Ser467) (5 μM, 1 hour): 1.00
Fold Change T/C: Smad2/3 (Phospho-Thr8) (5 μM, 1 hour): 1.25
Fold Change T/C: Smad3 (Ab-425) (5 μM, 1 hour): 0.52
Fold Change T/C: Smad3 (Phospho-Ser213) (5 μM, 1 hour): 1.26
Fold Change T/C: Src (Ab-418) (5 μM, 1 hour): 1.70
Fold Change T/C: Src (Phospho-Tyr418) (5 μM, 1 hour): 0.77
Fold Change T/C: TGFBR2 (Ab-250) (5 μM, 1 hour): 0.90
Fold Change T/C: Tau (Ab-235) (5 μM, 1 hour): 1.98
Fold Change T/C: Tau (Phospho-Ser396) (5 μM, 1 hour): 0.90
Fold Change T/C: Trk B (Ab-515) (5 μM, 1 hour): 1.53
Fold Change T/C: Tubulin-b (5 μM, 1 hour): 1.09
Fold Change T/C: VASP (Ab-157) (5 μM, 1 hour): 1.26
Fold Change T/C: VEGFR2 (Ab-1214) (5 μM, 1 hour): 1.07
Fold Change T/C: VEGFR2 (Phospho-Tyr1175) (5 μM, 1 hour): 0.84
Fold Change T/C: Zap-70 (Ab-319) (5 μM, 1 hour): 1.12
Fold Change T/C: Zap-70 (Phospho-Tyr319) (5 μM, 1 hour): 1.04
Fold Change T/C: c-Abl (Ab-412) (5 μM, 1 hour): 0.93
Fold Change T/C: c-Jun (Ab-243) (5 μM, 1 hour): 1.03
Fold Change T/C: c-Jun (Phospho-Ser73) (5 μM, 1 hour): 0.91
Fold Change T/C: eEF2K (Ab-366) (5 μM, 1 hour): 2.10
Fold Change T/C: eIF2A (Ab-51) (5 μM, 1 hour): 0.86
Fold Change T/C: eNOS (Ab-1179) (5 μM, 1 hour): 0.92
Fold Change T/C: p44/42 MAP Kinase (Phospho-Tyr204) (5 μM, 1 hour): 0.88
Fold Change T/C: p53 (Ab-315) (5 μM, 1 hour): 1.69
Fold Change T/C: p53 (Phospho-Ser15) (5 μM, 1 hour): 0.20
changes in implicated signaling pathways (Akt, IGF1, LTBP4/TGF-β) (5 μM, 1 hour): no consistent changes in implicated pathways
Average Signal of Replicate Spots: 4E-BP1 (Phospho-Thr45) (4000031744 (T)): 3952
Average Signal of Replicate Spots: 14-3-3 theta/tau (Phospho-Ser232) (4000031744 (T)): 1343
Average Signal of Replicate Spots: ACC1 (Phospho-Ser80) (4000031744 (T)): 1068
Average Signal of Replicate Spots: AMPKbeta1 (Phospho-Ser182) (4000031744 (T)): 1111
Average Signal of Replicate Spots: B-RAF (Phospho-Ser446) (4000031744 (T)): 1461
Average Signal of Replicate Spots: BAX (Phospho-Thr167) (4000031744 (T)): 923
Average Signal of Replicate Spots: BCL-XL (Phospho-Ser62) (4000031744 (T)): 3298
Average Signal of Replicate Spots: BLNK (Phospho-Tyr96) (4000031744 (T)): 811
Average Signal of Replicate Spots: CBL (Phospho-Tyr700) (4000031744 (T)): 1571
Average Signal of Replicate Spots: CDK1/CDC2 (Phospho-Tyr15) (4000031744 (T)): 1071
Average Signal of Replicate Spots: CREB (Phospho-Ser133) (4000031744 (T)): 971
Average Signal of Replicate Spots: CaMK2-beta/gamma/delta (Phospho-Thr287) (4000031744 (T)): 1442
Average Signal of Replicate Spots: CaMK2A (Phospho-Thr286) (4000031744 (T)): 1017
Average Signal of Replicate Spots: Caspase 8 (Phospho-Ser347) (4000031744 (T)): 1275
Average Signal of Replicate Spots: Caspase 9 (Phospho-Ser196) (4000031744 (T)): 3581
